The subject of one data set is A375 cells. Briefly: A375 proliferation assay (Cell TiterGlo). It is filed as cell-based. To be noted: Homo sapiens, A-375, 72 hours. Here is the method: Mechanism of Action (MOA) Cell Assay—A375 Cell Proliferation, pERK/ERK and pRSK/RSK Analysis:
Briefly, A375 cells were plated at 10,000 cells/well in three 96 well plates. Plates were incubated overnight at 37° C. and allowed to recover. Cells were washed with 150 μL of DPBS and 90 μL of fresh media was added to each well. The cells were then treated with a dose response of the selected compounds. Compounds were diluted from stock concentrations (10 mM in DMSO). Serial dilutions were made in DMSO, yielding 8 total different concentrations per compound. At time of compound addition, the control plate was analyzed using Cell TiterGlo to set baseline for proliferation. Compound treated cells were allowed to grow at 37° C./5% CO2 for 72 hours then analyzed using Cell TiterGlo according to kit protocol.

Data set [1] relates to phospho-ERK1/2 to total ERK1/2 in A375 cells. Briefly: A375 pERK/ERK dose response study (MSD). It is filed as cell-based. To be noted: Homo sapiens, A-375, ratio of phospho-ERK1/2 to total ERK1/2. Here is the method: A375 pERK/ERK Dose Response Study:
Briefly, A375 cells were plated at 30,000 cells/well in 2×96 well plates, allowed to recover overnight, washed and fed fresh media the next day then treated with a dose response of the selected compounds. Following the determined pretreatment time with the compounds at 37° C./5% CO2, the media was aspirated, and cells lysed with cold, complete MESO Scale Discovery (MSD) lysis buffer. pERK and total ERK1/2 levels were measured using MESO Scale Discover Phospho(Thr202/Tyr204; Thr185/Tyr187)/Total ERK1/2 kits. The protocol and all reagents were provided in the kit. All wells were blocked with 150 μl Blocking Solution for one hour. […] of lysis buffer was added per well and incubated overnight at 4° C. Following the overnight incubation, the wells were washed three times with Tris Wash buffer, then […] of 1× Detection Antibody was added per well and incubated at room temperature for one hour with vigorous shaking. All wells were then washed three times with Tris Wash Buffer before 150 μl of 1× Read Buffer was added per well and the plates read using the MSD Sector Imager. Data were calculated as a ratio of phospho-ERK1/2 to total ERK1/2 to allow for normalization of the samples.

Another data set concerns pRSK/RSK in A375 cells. The experiment in a line: A375 pRSK/RSK dose response study (ELISA). It is filed as cell-based. To be noted: Homo sapiens, A-375, pRSK and total RSK ELISA. The method, then:
A375 pRSK/RSK Dose Response Study
Briefly, A375 cells were plated at 30,000 cells/well in 2×96 well plates, allowed to recover overnight, washed and fed fresh media the next day then treated with a dose response of the selected compounds. Following the determined pretreatment with the compounds at 37° C./5% CO2 the media was aspirated, and cells lysed with cold, complete MSD lysis buffer. pRSK and total RSK were analyzed using CST/PathScan pRSK and total RSK ELISAS according to the respective kit protocols. All samples were analyzed at 90% of remaining sample in pRSK and 10% of remaining sample in total RSK ELISA, which was performed following kit protocols.
(In general: ELISA stands for enzyme-linked immunosorbent assay.)

The nature of data set [2]: Steady-state exposure of ulixertinib and metabolites in rat. The data set is classed as in vivo. From the text: (§1) The steady state exposure levels of non-isotopically enriched parent ulixertinib and related metabolites in rat (day 5) and human subjects (day 15) is provided in TABLE 1 below: […]
Data set [3] in a line: Steady-state exposure of ulixertinib and metabolites in human subjects. It is filed as in vivo.
From the text: as §1

Each structure is given as a SMILES string.

As to `[2H]C([2H])([2H])C([2H])(Nc1cc(-c2c[nH]c(C(=O)N[C@H](CO)c3cccc(Cl)c3)c2)c(Cl)cn1)C([2H])([2H])[2H]` [Formula 18, 4-(5-chloro-2-((propan-2-yl-d7)amino)pyridin-4-yl)-N-(1-(3-chlorophenyl)-2-hydroxyethyl)-1H-pyrrole-2-carboxamide], the IC50 in the data set with A375 cells came to 300 nM; in data set [1], 70 nM; with pRSK/RSK in A375 cells, 40 nM.
In the case of `CC(C)Nc1cc(-c2c[nH]c(C(=O)N[C@H](CO)c3cccc(Cl)c3)c2)c(Cl)cn1` [Ulixertinib, reference compound], the “% of total Ulixertinib related exposure” value in data set [2] (day 5, steady state) was found to be 91.1%; in data set [3] (day 15, steady state), 37.5%. In addition, the AUC at 5 day in data set [2] (in vivo, day 5, non-isotopically enriched ulixertinib and related metabolites, read-out: Steady-State AUC (Mean ± SD)) turned out to be 179 ± 49 µg·h/mL. In data set [3] (in vivo, day 15, non-isotopically enriched ulixertinib and related metabolites, read-out: Steady-State AUC (Mean ± SD)), the AUC at 15 day was 29.6 ± 16.1 µg·h/mL. The IC50 in the data set with A375 cells amounted to 250 nM; in data set [1] it was 58 nM; with pRSK/RSK in A375 cells, 37 nM.

As usually defined, the IC50 is the concentration that inhibits the measured activity by half. A word on the AUC: it is concentration integrated over time.

The values are drawn from patent US20250026733A1, “DEUTERATED ANALOGS OF PYROLE INHIBITORS OF ERK, SYNTHESIS THEREOF AND INTERMEDIATES THERETO” (BIOMED VALLEY DISCOVERIES, INC., priority 2022, published 2025).
